The results in this text go back to ChEMBL document CHEMBL4725259 (Bioorg Med Chem, 2020).

The source made the active and inactive calls. The rule behind the calls is not given here.

The target of assay [1] is T1, Follicle-stimulating hormone receptor (Homo sapiens) (UniProt P23945).
T1 sequence (whole entry): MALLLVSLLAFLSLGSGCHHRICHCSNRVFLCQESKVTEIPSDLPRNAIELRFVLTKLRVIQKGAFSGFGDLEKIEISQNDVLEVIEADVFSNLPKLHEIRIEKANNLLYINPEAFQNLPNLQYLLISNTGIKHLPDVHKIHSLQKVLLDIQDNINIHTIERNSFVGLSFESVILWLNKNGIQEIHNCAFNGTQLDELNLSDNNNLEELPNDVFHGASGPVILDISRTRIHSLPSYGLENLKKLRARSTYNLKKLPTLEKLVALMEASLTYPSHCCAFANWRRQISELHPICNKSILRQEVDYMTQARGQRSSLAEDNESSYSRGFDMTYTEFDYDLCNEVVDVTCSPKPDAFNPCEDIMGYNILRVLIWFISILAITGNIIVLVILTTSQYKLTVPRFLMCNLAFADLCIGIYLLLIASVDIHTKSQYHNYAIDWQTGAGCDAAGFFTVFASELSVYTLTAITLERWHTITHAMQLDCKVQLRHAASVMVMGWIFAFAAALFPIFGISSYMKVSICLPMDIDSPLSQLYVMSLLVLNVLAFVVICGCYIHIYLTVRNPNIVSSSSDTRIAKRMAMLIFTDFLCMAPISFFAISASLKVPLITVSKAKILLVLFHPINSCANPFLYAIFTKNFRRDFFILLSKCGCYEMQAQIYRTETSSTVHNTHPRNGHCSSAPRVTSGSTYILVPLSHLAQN
As to the kind of experiment: Agonist activity at human FSHR expressed in CHO-K1 cells at 20 uM by PathHunter beta-arrestin assay relative to control. It counts as cell-based.

Assay [2] deals with T2, Prolactin-releasing peptide receptor (Homo sapiens) (UniProt P49683).
T2 sequence (whole entry): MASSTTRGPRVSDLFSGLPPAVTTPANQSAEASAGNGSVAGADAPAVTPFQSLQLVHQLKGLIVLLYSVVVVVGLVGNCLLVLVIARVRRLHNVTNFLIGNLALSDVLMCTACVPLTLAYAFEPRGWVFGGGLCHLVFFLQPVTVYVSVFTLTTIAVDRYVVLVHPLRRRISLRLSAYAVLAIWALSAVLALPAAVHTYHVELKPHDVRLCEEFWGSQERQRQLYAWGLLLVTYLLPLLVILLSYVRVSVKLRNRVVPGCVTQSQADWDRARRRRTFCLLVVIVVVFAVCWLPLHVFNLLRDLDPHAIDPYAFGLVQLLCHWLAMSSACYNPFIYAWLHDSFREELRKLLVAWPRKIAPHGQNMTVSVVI
Nature of the assay: Agonist activity at human PRLHR expressed in CHO-K1 cells at 20 uM by PathHunter beta-arrestin assay relative to control. Type of assay: cell-based.

For a further assay, the system named is U2OS. As to the kind of experiment: Antagonist activity at NPSR1B in human U2OS cells at 20 uM by PathHunter beta-arrestin assay relative to control. Type of assay: cell-based. The conditions noted are these: filed as antagonist.
For assay [3], the target named is C-C chemokine receptor type 8 (Homo sapiens, UniProt P51685). Nature of the assay: Agonist activity at human CCR8 expressed in CHO-K1 cells at 20 uM by PathHunter beta-arrestin assay relative to control. Type of assay: cell-based.
Sequence of C-C chemokine receptor type 8 (P51685 whole entry): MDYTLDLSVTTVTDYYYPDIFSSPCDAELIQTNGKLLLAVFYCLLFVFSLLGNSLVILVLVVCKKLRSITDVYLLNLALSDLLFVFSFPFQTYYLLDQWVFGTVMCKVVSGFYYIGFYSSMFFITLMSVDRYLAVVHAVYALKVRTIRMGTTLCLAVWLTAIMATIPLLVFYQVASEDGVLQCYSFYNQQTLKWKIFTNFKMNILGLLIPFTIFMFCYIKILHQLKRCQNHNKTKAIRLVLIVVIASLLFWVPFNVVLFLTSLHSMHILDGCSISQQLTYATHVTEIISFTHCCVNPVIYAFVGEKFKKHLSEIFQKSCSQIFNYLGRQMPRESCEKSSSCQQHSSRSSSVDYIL
The target in assay [4] is T2, Prolactin-releasing peptide receptor (Homo sapiens). Nature of the assay: Antagonist activity at human PRLHR expressed in CHO-K1 cells at 20 uM by PathHunter beta-arrestin assay relative to control. It counts as cell-based. The conditions noted are these: filed as antagonist.
Assay [5] addresses T3, C-X-C chemokine receptor type 4 (Homo sapiens, UniProt P61073). Nature of the assay: Antagonist activity at human CXCR4 expressed in mouse C2C12 cells at 20 uM by PathHunter beta-arrestin assay relative to control. It counts as cell-based. The note with it: filed as antagonist.
In assay [6] the target is T4, Oxytocin receptor (Homo sapiens) (UniProt P30559).
T4 sequence (whole entry): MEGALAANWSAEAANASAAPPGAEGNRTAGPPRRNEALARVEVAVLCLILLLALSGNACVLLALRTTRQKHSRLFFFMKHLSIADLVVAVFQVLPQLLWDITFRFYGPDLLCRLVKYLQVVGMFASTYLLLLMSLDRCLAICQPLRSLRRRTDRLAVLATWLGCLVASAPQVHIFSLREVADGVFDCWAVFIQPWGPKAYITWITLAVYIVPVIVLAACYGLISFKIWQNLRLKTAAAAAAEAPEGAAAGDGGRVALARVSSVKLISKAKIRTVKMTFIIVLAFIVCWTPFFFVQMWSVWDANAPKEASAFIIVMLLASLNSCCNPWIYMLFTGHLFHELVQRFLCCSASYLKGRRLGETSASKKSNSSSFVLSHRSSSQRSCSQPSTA
As to the kind of experiment: Antagonist activity at human OXTR expressed in CHO-K1 cells at 20 uM by PathHunter beta-arrestin assay relative to control. It counts as cell-based. The conditions noted are these: filed as antagonist.

In assay [7] the target is T5, CX3C chemokine receptor 1 (Homo sapiens) (UniProt P49238).
T5 sequence (whole entry): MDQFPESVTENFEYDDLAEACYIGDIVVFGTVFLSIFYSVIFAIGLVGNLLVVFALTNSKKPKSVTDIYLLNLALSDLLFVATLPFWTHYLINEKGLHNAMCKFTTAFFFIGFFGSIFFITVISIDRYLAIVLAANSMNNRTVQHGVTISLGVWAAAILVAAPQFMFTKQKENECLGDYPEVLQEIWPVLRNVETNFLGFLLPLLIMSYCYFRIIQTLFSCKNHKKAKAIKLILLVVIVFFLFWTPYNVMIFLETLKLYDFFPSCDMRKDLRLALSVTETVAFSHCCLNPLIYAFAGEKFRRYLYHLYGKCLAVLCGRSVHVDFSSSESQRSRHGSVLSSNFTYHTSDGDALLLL
Nature of the assay: Agonist activity at human CX3CR1 expressed in CHO-K1 cells at 20 uM by PathHunter beta-arrestin assay relative to control. It counts as cell-based.

The target of assay [8] is T4, Oxytocin receptor (Homo sapiens). Nature of the assay: Agonist activity at human OXTR expressed in CHO-K1 cells at 20 uM by PathHunter beta-arrestin assay relative to control. Type of assay: cell-based.
Assay [9] deals with T6, C-C chemokine receptor type 3 (Homo sapiens) (UniProt P51677).
T6 sequence (whole entry): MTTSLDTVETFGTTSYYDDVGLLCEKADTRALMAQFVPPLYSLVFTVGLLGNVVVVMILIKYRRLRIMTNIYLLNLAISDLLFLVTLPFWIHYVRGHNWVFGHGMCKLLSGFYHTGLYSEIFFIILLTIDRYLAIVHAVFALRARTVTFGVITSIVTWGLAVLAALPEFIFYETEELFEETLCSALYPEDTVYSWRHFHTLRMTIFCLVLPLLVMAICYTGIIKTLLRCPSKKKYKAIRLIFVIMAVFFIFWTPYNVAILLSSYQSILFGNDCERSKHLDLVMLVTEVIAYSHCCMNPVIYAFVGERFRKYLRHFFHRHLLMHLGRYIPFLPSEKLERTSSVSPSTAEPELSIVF
As to the kind of experiment: Antagonist activity at human CCR3 expressed in CHO-K1 cells at 20 uM by PathHunter beta-arrestin assay relative to control. It counts as cell-based. The conditions noted are these: filed as antagonist.

The target in assay [10] is T3, C-X-C chemokine receptor type 4. As to the kind of experiment: Agonist activity at human CXCR4 expressed in mouse C2C12 cells at 20 uM by PathHunter beta-arrestin assay relative to control. It counts as cell-based.
The target in another assay is Vasopressin V2 receptor (Homo sapiens, UniProt P30518). Nature of the assay: Antagonist activity at human AVPR2 at 20 uM by PathHunter beta-arrestin assay relative to control. The note with it: filed as antagonist.
Sequence of Vasopressin V2 receptor (P30518 whole entry): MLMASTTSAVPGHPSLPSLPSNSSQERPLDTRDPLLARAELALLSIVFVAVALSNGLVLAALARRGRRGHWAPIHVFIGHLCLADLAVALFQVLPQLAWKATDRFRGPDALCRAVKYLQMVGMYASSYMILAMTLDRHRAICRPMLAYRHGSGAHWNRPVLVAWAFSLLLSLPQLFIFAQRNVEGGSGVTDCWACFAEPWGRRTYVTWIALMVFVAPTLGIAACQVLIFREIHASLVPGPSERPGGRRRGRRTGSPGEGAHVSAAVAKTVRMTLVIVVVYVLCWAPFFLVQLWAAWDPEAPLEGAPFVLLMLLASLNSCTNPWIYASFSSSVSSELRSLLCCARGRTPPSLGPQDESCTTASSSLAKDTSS
Assay [11] concerns the target T6, C-C chemokine receptor type 3 (Homo sapiens). Nature of the assay: Agonist activity at human CCR3 expressed in CHO-K1 cells at 20 uM by PathHunter beta-arrestin assay relative to control. Type of assay: cell-based.

T3 sequence (P61073 whole entry): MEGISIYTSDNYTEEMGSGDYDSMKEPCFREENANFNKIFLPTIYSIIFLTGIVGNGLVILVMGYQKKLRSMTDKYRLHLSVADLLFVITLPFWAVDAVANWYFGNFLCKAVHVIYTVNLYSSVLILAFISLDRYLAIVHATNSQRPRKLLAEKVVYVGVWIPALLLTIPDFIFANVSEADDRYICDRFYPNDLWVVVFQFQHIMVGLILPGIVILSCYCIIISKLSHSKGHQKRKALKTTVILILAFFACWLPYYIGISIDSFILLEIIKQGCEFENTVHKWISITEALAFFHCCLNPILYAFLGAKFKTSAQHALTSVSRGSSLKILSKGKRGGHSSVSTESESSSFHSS

On to `COC(=O)[C@@H]1[C@H]2C[C@@H](c3[nH]c4ccccc4c3CCn3cc(-c4cccc(Cl)c4)nn3)N(C#N)C[C@@H]2CC[C@@H]1O`, for which the result in assay [1], in assay [2], in assay [3], in assay [7], in assay [8] and in assay [10] was inactive. In addition, the result in assay [11] was inactive. Further, the inhibition in the assay with U2OS was determined as 62%; in [4], 19%; in assay [5] it was 125%; in [6] it was 9%; in assay [9], 112%; against Vasopressin V2 receptor, 7%.
As for `COC(=O)[C@@H]1[C@H]2C[C@@H]3N(CC[C@@]34C(=O)N(Cc3cccc(OC)c3)c3ccccc34)C[C@@H]2CC[C@@H]1OCc1cccc(OC)c1`, the result in assay [1], in assay [2], in assay [3], in [7], in assay [8] and in assay [10] was inactive. In [11], the result was inactive. Also, the inhibition turned out to be 48% in the assay on U2OS; 63% in assay [4]; 39% in [5]; 97% in [6]; 89% in assay [9]; 83% on Vasopressin V2 receptor.

One may read the inhibition as the change of the read-out against control, counted positive when it falls.
